Reference: ChEMBL document CHEMBL4602605, “Fluoroquinolones structural and medicinal developments (2013-2018): Where are we now?” (Bioorg Med Chem, 2019)
Converted amounts (≈) assume the structure as drawn.

Experiments:
Type in all cases: functional
[1] = system: Escherichia coli; test: Antibacterial activity against Escherichia coli NCDC 134 by single disk method
[2] = system: Pseudomonas aeruginosa; test: Antibacterial activity against Pseudomonas aeruginosa NCDC 105 by single disk method
[3] = system: Bacillus subtilis; test: Antibacterial activity against Bacillus subtilis NCDC 71 by single disk method
[4] = system: Paenibacillus polymyxa; test: Antibacterial activity against Paenibacillus polymyxa NCDC 64 by single disk method
[5] = system: Staphylococcus aureus; test: Antibacterial activity against Staphylococcus aureus NCDC 110 by single disk method
[6] = system: Mus musculus; test: Analgesic activity in Swiss albino mouse assessed as acetic acid-induced writhing number at 50 mg/kg pretreated for 30 mins followed by acetic acid challenge and measured after 5 to 15 mins (reference value: 30.8 +/- 0.37)
[7] = system: Metaphire posthuma; test: Anthelmintic activity against Pheretima posthuma assessed as mean paralysing time at 200 mg/ml
[8] = system: Escherichia coli; test: Antimicrobial activity against ESBL non-producing Escherichia coli ATCC 25922
[9] = system: Klebsiella pneumoniae; test: Antimicrobial activity against ESBL-producing Klebsiella pneumoniae ATCC 700603
[10] = system: Acinetobacter calcoaceticus; test: Antimicrobial activity against Acinetobacter calcoaceticus ATCC 19606
[11] = system: Enterobacter cloacae; test: Antimicrobial activity against Enterobacter cloacae ATCC 43560
[12] = system: Pseudomonas aeruginosa; test: Antimicrobial activity against Pseudomonas aeruginosa ATCC 27853
[13] = system: Escherichia coli; test: Antibacterial activity against Escherichia coli incubated for 18 hrs by CLSI-based broth microdilution method
[14] = system: Pseudomonas aeruginosa; test: Antimicrobial activity against Pseudomonas aeruginosa ATCC 19429 incubated for 18 hrs by CLSI-based microbroth dilution method; conditions: ATCC 19429, 18 h
[15] = system: Staphylococcus aureus; test: Antimicrobial activity against Staphylococcus aureus ATCC 25923 incubated for 18 hrs by CLSI-based microbroth dilution method; conditions: ATCC 25923, 18 h
[16] = system: Staphylococcus epidermidis; test: Antimicrobial activity against methicillin-susceptible Staphylococcus epidermidis clinical isolate incubated for 16 hrs by CLSI based agar dilution method
[17] = system: Staphylococcus epidermidis; test: Antimicrobial activity against methicillin-resistant Staphylococcus epidermidis clinical isolate incubated for 16 hrs by CLSI based agar dilution method
[18] = system: Staphylococcus aureus; test: Antimicrobial activity against methicillin-susceptible Staphylococcus aureus clinical isolate incubated for 16 hrs by CLSI based agar dilution method
[19] = system: Escherichia coli; test: Antimicrobial activity against Escherichia coli ATCC 700603 incubated for 16 hrs by CLSI-based agar dilution method; conditions: ATCC 700603, 16 h
[20] = system: Klebsiella pneumoniae; test: Antimicrobial activity against Klebsiella pneumoniae ATCC 29522 incubated for 16 hrs by CLSI-based agar dilution method; conditions: ATCC 29522, 16 h

SMILES | MIC [1] | MIC [2] | MIC [3] | MIC [4] | MIC [5] | Activity [6] | Time [7] | MIC [13] | MIC [14] | MIC [15] | other results
COc1c(N2CCN(CC(=O)Nc3nc4c(C)cccc4s3)C(C)C2)c(F)cc2c(=O)c(C(=O)O)cn(C3CC3)c12 (configuration not stated) | 75 µg/mL (≈ 129 µM) | 85 µg/mL (≈ 147 µM) | 120 µg/mL (≈ 207 µM) | 60 µg/mL (≈ 104 µM) | 70 µg/mL (≈ 121 µM) | 20.8 | 32.4 min |  |  |  | 
O=C(O)c1cn([C@@H]2C[C@@H]2F)c2cc(N3CCN(Cn4nc(-c5cccnc5)n(-c5ccccc5)c4=S)CC3)c(F)cc2c1=O |  |  |  |  |  |  |  |  |  |  | MIC [8]: ≤ 0.05 µM; MIC [9]: 1.63 µM (≈ 1 µg/mL); MIC [10]: 13 µM (≈ 8 µg/mL); MIC [11]: ≤ 0.05 µM; MIC [12]: 1.63 µM (≈ 1 µg/mL)
CCn1cc(C(=O)O)c(=O)c2cc(F)c(N3CCN(CC(=O)Nc4nc5ccc(F)cc5s4)CC3)cc21 | 35 µg/mL (≈ 66.3 µM) | 40 µg/mL (≈ 75.8 µM) | 65 µg/mL (≈ 123 µM) | 55 µg/mL (≈ 104 µM) | 45 µg/mL (≈ 85.3 µM) | 18.6 | 23.6 min |  |  |  | 
Cl.NCCNc1cc2c(cc1F)c(=O)c(C(=O)O)cn2C1CC1 |  |  |  |  |  |  |  | 1 µg/mL | 4 µg/mL | 16 µg/mL | 
CCn1cc(C(=O)O)c(=O)c2cc(F)c(N3CCN(CC(=O)Nc4nc5ccc(Cl)cc5s4)CC3)cc21 | 50 µg/mL (≈ 91.9 µM) | 10 µg/mL (≈ 18.4 µM) | 2 µg/mL (≈ 3.68 µM) | 25 µg/mL (≈ 46 µM) | 15 µg/mL (≈ 27.6 µM) | 15.2 | 23.6 min |  |  |  | 
CCCCN(CCCC)c1cc2c(cc1F)c(=O)c(C(=O)O)cn2CC |  |  |  |  |  |  |  | > 128 µg/mL | > 128 µg/mL | 8 µg/mL (≈ 22.1 µM) | 
O=C(CN1CCN(c2cc3c(cc2F)c(=O)c(C(=O)O)cn3C2CC2)CC1)Nc1nc2ccc([N+](=O)[O-])cc2s1 | 35 µg/mL (≈ 61.8 µM) | 45 µg/mL (≈ 79.4 µM) | 25 µg/mL (≈ 44.1 µM) | 55 µg/mL (≈ 97.1 µM) | 50 µg/mL (≈ 88.3 µM) | 14.2 | 22.8 min |  |  |  | 
Cl.O=C(O)c1cn(Cc2ccccc2)c2cc(N3CCNCC3)c(F)cc2c1=O |  |  |  |  |  |  |  | 1 µg/mL | 2 µg/mL | 2 µg/mL | 
Cl.Cn1cc(C(=O)O)c(=O)c2cc(F)c(N3CCNCC3)cc21 |  |  |  |  |  |  |  | 0.25 µg/mL | 2 µg/mL | 8 µg/mL | 
CCn1cc(C(=O)O)c(=O)c2cc(F)c(N3CCN(CC(=O)Nc4nc5ccc([N+](=O)[O-])cc5s4)CC3)cc21 | 125 µg/mL (≈ 225 µM) | 55 µg/mL (≈ 99.2 µM) | 15 µg/mL (≈ 27 µM) | 75 µg/mL (≈ 135 µM) | 105 µg/mL (≈ 189 µM) | 17.8 | 27 min |  |  |  | 
CC(C)n1cc(C(=O)O)c(=O)c2cc(F)c(N3CCNCC3)cc21.Cl |  |  |  |  |  |  |  | 0.5 µg/mL | 4 µg/mL | 8 µg/mL | 
CCn1cc(C(=O)O)c(=O)c2cc(F)c(N3CCN(CC(=O)Nc4nc5ccc(C)cc5s4)CC3)cc21 | 65 µg/mL (≈ 124 µM) | 20 µg/mL (≈ 38.2 µM) | 30 µg/mL (≈ 57.3 µM) | 45 µg/mL (≈ 85.9 µM) | 25 µg/mL (≈ 47.7 µM) | 17.8 | 28.4 min |  |  |  | 
Cl.O=C(O)c1cn(CCO)c2cc(N3CCNCC3)c(F)cc2c1=O |  |  |  |  |  |  |  | 4 µg/mL | 64 µg/mL | 64 µg/mL | 
CCn1cc(C(=O)O)c(=O)c2cc(F)c(N3CCN(CC(=O)Nc4nc5c(Cl)ccc(Cl)c5s4)CC3)cc21 | 60 µg/mL (≈ 104 µM) | 30 µg/mL (≈ 51.9 µM) | 20 µg/mL (≈ 34.6 µM) | 15 µg/mL (≈ 25.9 µM) | 40 µg/mL (≈ 69.1 µM) | 17.4 | 26.8 min |  |  |  | 
O=C(O)c1cn(C2CC2)c2cc(N3CCCCCC3)c(F)cc2c1=O |  |  |  |  |  |  |  | 2 µg/mL (≈ 5.81 µM) | > 128 µg/mL | 0.25 µg/mL (≈ 0.726 µM) | 
COc1c(N2CCN(CC(=O)Nc3nc4ccc(Cl)c(Cl)c4s3)C(C)C2)c(F)cc2c(=O)c(C(=O)O)cn(C3CC3)c12 (configuration not stated) | 70 µg/mL (≈ 110 µM) | 30 µg/mL (≈ 47.3 µM) | 25 µg/mL (≈ 39.4 µM) | 25 µg/mL (≈ 39.4 µM) | 10 µg/mL (≈ 15.8 µM) | 0.73 | 2.7 min |  |  |  | 

SMILES | MIC [1] | MIC [2] | MIC [3] | MIC [4] | MIC [5] | Activity [6] | Time [7] | MIC [13] | MIC [14] | MIC [15] | other results
CN1CCN(c2cc3c(cc2F)c(=O)c(C(=O)O)cn3C2CC2)CC1 |  |  |  |  |  |  |  | 0.0078 µg/mL (≈ 0.0226 µM) | 1 µg/mL (≈ 2.9 µM) | 0.25 µg/mL (≈ 0.724 µM) | 
CCn1cc(C(=O)O)c(=O)c2cc(F)c(N3CCN(CC(O)Cn4cc([N+](=O)[O-])nc4Cl)CC3)c(OC)c21 (configuration not stated) |  |  |  |  |  |  |  |  |  |  | MIC [16]: 32 µg/mL (≈ 57.9 µM); MIC [17]: > 32 µg/mL; MIC [18]: > 32 µg/mL; MIC [19]: > 32 µg/mL; MIC [20]: > 32 µg/mL
O=C(CN1CCN(c2cc3c(cc2F)c(=O)c(C(=O)O)cn3C2CC2)CC1)Nc1nc2ccc(F)cc2s1 | 80 µg/mL (≈ 148 µM) | 60 µg/mL (≈ 111 µM) | 40 µg/mL (≈ 74.1 µM) | 125 µg/mL (≈ 232 µM) | 35 µg/mL (≈ 64.9 µM) | 17 | 27.8 min |  |  |  | 
CCn1cc(C(=O)O)c(=O)c2cc(F)c(N3CCCCCC3)cc21 |  |  |  |  |  |  |  | 16 µg/mL (≈ 48.1 µM) | > 128 µg/mL | 0.5 µg/mL (≈ 1.5 µM) | 
Cc1ccc2nc(NC(=O)CN3CCN(c4cc5c(cc4F)c(=O)c(C(=O)O)cn5C4CC4)CC3)sc2c1 | 20 µg/mL (≈ 37.3 µM) | 45 µg/mL (≈ 84 µM) | 35 µg/mL (≈ 65.3 µM) | 110 µg/mL (≈ 205 µM) | 40 µg/mL (≈ 74.7 µM) | 16.2 | 23.2 min |  |  |  | 
COc1c(N2CCN(CC(=O)Nc3nc4c([N+](=O)[O-])cccc4s3)C(C)C2)c(F)cc2c(=O)c(C(=O)O)cn(C3CC3)c12 (configuration not stated) | 65 µg/mL (≈ 106 µM) | 75 µg/mL (≈ 123 µM) | 40 µg/mL (≈ 65.5 µM) | 45 µg/mL (≈ 73.7 µM) | 60 µg/mL (≈ 98.3 µM) | 1.63 | 1.2 min |  |  |  | 
CCN(CC)c1cc2c(cc1F)c(=O)c(C(=O)O)cn2C1CC1 |  |  |  |  |  |  |  | 1 µg/mL (≈ 3.14 µM) | 32 µg/mL (≈ 101 µM) | 0.5 µg/mL (≈ 1.57 µM) | 
COc1c(N2CCN(CC(=O)Nc3nc4c(F)cccc4s3)C(C)C2)c(F)cc2c(=O)c(C(=O)O)cn(C3CC3)c12 (configuration not stated) | 140 µg/mL (≈ 240 µM) | 50 µg/mL (≈ 85.7 µM) | 70 µg/mL (≈ 120 µM) | 25 µg/mL (≈ 42.8 µM) | 15 µg/mL (≈ 25.7 µM) | 15 | 23.6 min |  |  |  | 
CCN(CC)c1cc2c(cc1F)c(=O)c(C(=O)O)cn2CC |  |  |  |  |  |  |  | 8 µg/mL (≈ 26.1 µM) | > 128 µg/mL | 4 µg/mL (≈ 13.1 µM) | 
COc1ccc(Cn2cc(C(=O)O)c(=O)c3cc(F)c(N4CCNCC4)cc32)cc1.Cl |  |  |  |  |  |  |  | 128 µg/mL | > 128 µg/mL | 64 µg/mL | 
O=C(CN1CCN(c2cc3c(cc2F)c(=O)c(C(=O)O)cn3C2CC2)CC1)Nc1nc2c(Cl)ccc(Cl)c2s1 | 6 µg/mL (≈ 10.2 µM) | 65 µg/mL (≈ 110 µM) | 10 µg/mL (≈ 16.9 µM) | 30 µg/mL (≈ 50.8 µM) | 5 µg/mL (≈ 8.47 µM) | 15.6 | 32.6 min |  |  |  | 
COc1c(N2CCN(CC(=O)Nc3nc4c(Cl)cccc4s3)C(C)C2)c(F)cc2c(=O)c(C(=O)O)cn(C3CC3)c12 (configuration not stated) | 60 µg/mL (≈ 100 µM) | 20 µg/mL (≈ 33.3 µM) | 75 µg/mL (≈ 125 µM) | 25 µg/mL (≈ 41.7 µM) | 4 µg/mL (≈ 6.67 µM) | 19.2 | 24.6 min |  |  |  | 
O=C(CN1CCN(c2cc3c(cc2F)c(=O)c(C(=O)O)cn3C2CC2)CC1)Nc1nc2ccc(Cl)cc2s1 | 8 µg/mL (≈ 14.4 µM) | 15 µg/mL (≈ 27 µM) | 4 µg/mL (≈ 7.19 µM) | 15 µg/mL (≈ 27 µM) | 3 µg/mL (≈ 5.4 µM) | 13.8 | 26 min |  |  |  | 
CCn1cc(C(=O)O)c(=O)c2cc(F)c(N(C)C)cc21 |  |  |  |  |  |  |  | 2 µg/mL (≈ 7.19 µM) | 64 µg/mL (≈ 230 µM) | 0.5 µg/mL (≈ 1.8 µM) | 
CCCCn1cc(C(=O)O)c(=O)c2cc(F)c(N3CCNCC3)cc21.Cl |  |  |  |  |  |  |  | 2 µg/mL | 16 µg/mL | 16 µg/mL | 
